The text below walks through data of patent US6943185B2, “Use of 2-methyl-thiazolidine-2,4-dicarboxylic acid and/or physiologically compatible salts thereof for producing a medicament for treating cancers” (Trommsdorff GmbH & Co. KG, priority 2000, dated 2005).

For data set [1] the following is noted: cited from earlier work.
In data set [2] the test system is reduced glutathione (GSH) in the hepatic tissue. In words: Effect of 2-MTDC on reduced glutathione (GSH) in the hepatic tissue in mice. In kind it is in vivo. Conditions: mouse liver; for Glutathione (GSH), % of the reference value: reference 0.9% NaCl.
Data set [3] relates to animal tumor models. Put plainly: Animal tumor models (skin papillomas, mammary adenocarcinomas, tracheal cancer, pulmonary adenocarcinomas, colon carcinomas, bladder cancer). In kind it is in vivo. The conditions noted are these: several animal tumor models in mouse, rat, hamster. The procedure: These studies were conducted in several animal tumor models. Test systems used were the mouse, the rat, and the hamster. The objects of study included skin papillomas, mammary adenocarcinomas, tracheal cancer, pulmonary adenocarcinomas as well as colon carcinomas and bladder cancer.

The conditions of data set [4]: pulmonary cancer patients treated with epirubicin and simultaneously NAC; cited from earlier work.
[5] abbreviates: 2-MTDC 1.2 mmol/kg intraperitoneally, 8 hours after injection.
[6] abbreviates: 2-MTDC 2.4 mmol/kg intraperitoneally, 4 hours after injection.

Regarding `CC1NC(C(=O)O)CS1` (stereo not shown), the “Stability under physiological conditions” value in data set [1] is “spontaneously decomposes into its components under physiological conditions”.

As to `CC1(C(=O)O)NC(C(=O)O)CS1` (stereo not shown) [2-MTDC, 2-methyl-thiazolidine-2,4-dicarboxylic acid], the “Glutathione (GSH), % of the reference value” was determined as 117.5% in data set [2] (2-MTDC 1.2 mmol/kg intraperitoneally, 1 hour after injection); 87.2% in data set [2] (2-MTDC 1.2 mmol/kg intraperitoneally, 4 hours after injection); 108.5% in data set [2] (setting [5]); 112.0% in data set [2] (2-MTDC 1.2 mmol/kg intraperitoneally, 12 hours after injection); 127.6% in data set [2] (2-MTDC 2.4 mmol/kg intraperitoneally, 1 hour after injection); 90.3% in data set [2] (setting [6]). Further, the “Glutathione (GSH), % of the reference value” in data set [2] (2-MTDC 2.4 mmol/kg intraperitoneally, 8 hours after injection) was found to be 112.0%; in data set [2] (2-MTDC 2.4 mmol/kg intraperitoneally, 12 hours after injection), 154.5%. Moreover, the figures for the “Glutathione (GSH), mean ± SD” value in data set [2] (setting [5]) and in data set [2] (setting [6]) were 6.48 ± 0.67 μmol/g wet weight and 5.76 ± 0.42 μmol/g wet weight, respectively. In data set [3], the “Effect on the advance of cancerous diseases” value is “can slow down or even stop the advance of cancerous diseases”.

For `CC(=O)N[C@@H](CS)C(=O)O` [N-acetylcysteine], the “Effect on undesirable cardiotoxic effects of epirubicin” value in data set [4] was “undesirable cardiotoxic effects of epirubicin could be prevented”.
